The source of these data is patent publication US20260258035A1, “FIVE-MEMBERED AND SIX-MEMBERED NITROGEN-CONTAINING COMPOUND, AND INTERMEDIATE, PREPARATION METHOD AND USE THEREOF” (HANGZHOU SYNRX THERAPEUTICS BIOMEDICAL TECHNOLOGY CO., LTD., priority 2022, published 2026).

For one experiment, the target named is PARG (Homo sapiens, UniProt Q86W56). Description: Biochemical assay (PARG, TFMU-ADPr substrate).
The test system of the next experiment is HCC1806. The experiment can be described thus: Cell viability assay (CellTiter-Glo). As to conditions: HCC1806, 7 days, CellTiter-Glo, read-out: IC50 (nM) in cell viability assay. It counts as cell-based, Human.
Where [1] appears, read: 4 nM PARG, 66.2 uM TFMU-ADPr, 3 min at room temperature.

The structures appear in SMILES notation. Like-named read-outs stand apart in the source and are kept apart here.

Chain of PARG (Q86W56 whole entry): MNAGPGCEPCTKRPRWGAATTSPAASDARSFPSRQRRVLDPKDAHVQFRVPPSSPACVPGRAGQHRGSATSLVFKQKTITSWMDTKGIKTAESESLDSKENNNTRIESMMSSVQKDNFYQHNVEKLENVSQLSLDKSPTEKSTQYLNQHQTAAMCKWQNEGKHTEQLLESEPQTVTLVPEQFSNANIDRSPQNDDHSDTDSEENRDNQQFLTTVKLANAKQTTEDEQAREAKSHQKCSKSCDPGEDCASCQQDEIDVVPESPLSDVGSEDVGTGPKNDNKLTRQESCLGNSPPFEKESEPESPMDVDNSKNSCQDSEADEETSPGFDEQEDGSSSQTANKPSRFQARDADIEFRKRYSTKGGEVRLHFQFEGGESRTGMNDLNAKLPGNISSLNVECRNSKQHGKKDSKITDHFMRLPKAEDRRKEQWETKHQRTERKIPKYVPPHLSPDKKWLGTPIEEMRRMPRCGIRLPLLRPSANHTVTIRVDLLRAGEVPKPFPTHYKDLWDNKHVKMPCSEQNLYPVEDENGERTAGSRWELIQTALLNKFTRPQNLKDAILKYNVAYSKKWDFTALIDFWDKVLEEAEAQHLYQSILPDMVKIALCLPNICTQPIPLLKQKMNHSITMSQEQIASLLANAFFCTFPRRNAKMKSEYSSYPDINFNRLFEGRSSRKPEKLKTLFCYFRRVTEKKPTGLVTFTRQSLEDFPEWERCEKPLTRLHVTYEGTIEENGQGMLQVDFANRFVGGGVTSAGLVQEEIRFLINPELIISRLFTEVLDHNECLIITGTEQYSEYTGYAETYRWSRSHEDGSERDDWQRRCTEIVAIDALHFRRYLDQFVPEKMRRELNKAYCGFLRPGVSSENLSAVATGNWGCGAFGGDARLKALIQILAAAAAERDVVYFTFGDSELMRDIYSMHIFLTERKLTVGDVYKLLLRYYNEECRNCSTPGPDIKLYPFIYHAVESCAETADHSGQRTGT

With `N#CC1(NS(=O)(=O)c2cc(N3CCN(C(=O)C4(F)CNC4)CC3)c3cnc(-c4nnc(C(F)(F)F)s4)n3c2)CC1` [Example 278, N-(1-cyanocyclopropyl)-8-(4-(3-fluoroazetidine-3-carbonyl)piperazin-1-yl)-3-(5-(trifluoromethyl)-1,3,4-thiadiazol-2-yl)imidazo[1,5-a]pyridine-6-sulfonamide], the IC50 against PARG (PARG, TFMU-ADPr substrate) turned out to be 40.7 nM; with HCC1806 (Homo sapiens, HCC1806, 168 h), 1980 nM.
Taken in the same sequence, the figures for `CC(C)C(=O)N1CCN(c2cc(S(=O)(=O)NC3CC3)cn3c(-c4nnc(C(F)(F)F)s4)cnc23)CC1` [Example 208, N-cyclopropyl-8-(4-isobutyrylpiperazin-1-yl)-3-(5-(trifluoromethyl)-1,3,4-thiadiazol-2-yl)imidazo[1,2-a]pyridine-6-sulfonamide] were 110 nM and 3350 nM.
Taken in the same sequence, the figures for `O=C(C1CCN(c2cc(S(=O)(=O)NC3CC3)cn3c(-c4nnc(C(F)(F)F)s4)ncc23)CC1)N1CCC1` [Example 219, 8-(4-(azetidine-1-carbonyl)piperidin-1-yl)-N-cyclopropyl-3-(5-(trifluoromethyl)-1,3,4-thiadiazol-2-yl)imidazo[1,5-a]pyridine-6-sulfonamide] were 100 nM and 4610 nM.
Take `CN(C)C(=O)N1CC2(CC=C(c3nc(-c4nnc(C(F)F)s4)n4cc(S(=O)(=O)NC5(C#N)CC5)ccc34)C2)C1` [Example 25, 6-(6-(N-(1-cyanocyclopropyl)sulfamoyl)-3-(5-(difluoromethyl)-1,3,4-thiadiazol-2-yl)imidazo[1,5-a]pyridin-1-yl)-N,N-dimethyl-2-azaspiro[3.4]oct-6-ene-2-carboxamide]: the IC50 on PARG (setting [1]) is less than 100 nM; against PARG (PARG, TFMU-ADPr substrate) it was 4.84 nM; in the experiment with HCC1806 it was 490 nM; in the experiment on HCC1806 (Homo sapiens, HCC1806, 168 h) it was less than 500 nM.
As for `C[C@@H]1CN(c2cc(S(=O)(=O)NC3(C#N)CC3)cn3c(-c4nnc(C(F)F)s4)ncc23)CCN1C(CO)C(F)(F)F` (stereo partly drawn) [Example 144, N-(1-cyanocyclopropyl)-3-(5-(difluoromethyl)-1,3,4-thiadiazol-2-yl)-8-((3R)-3-methyl-4-(1,1,1-trifluoro-3-hydroxypropan-2-yl)piperazin-1-yl)imidazo[1,5-a]pyridine-6-sulfonamide], the concentration for half-maximal inhibition (IC50) against PARG (setting [1]) was 100 to 500 nM; at PARG (PARG, TFMU-ADPr substrate), 263 nM; with HCC1806 it was 7020 nM; with HCC1806 (Homo sapiens, HCC1806, 168 h) it was 5000 to 30000 nM.
Turning to `CC(C)C(=O)N1CCN(c2cc(S(=O)(=O)NC3(C#N)CC3)cn3c(-c4nnc(C(F)(F)F)s4)nc(Cl)c23)C[C@H]1C` [Example 130, (R)-1-chloro-N-(1-cyanocyclopropyl)-8-(4-isobutyryl-3-methylpiperazin-1-yl)-3-(5-(trifluoromethyl)-1,3,4-thiadiazol-2-yl)imidazo[1,5-a]pyridine-6-sulfonamide], the IC50 was found to be 36.3 nM against PARG (PARG, TFMU-ADPr substrate) and 1200 nM with HCC1806 (Homo sapiens, HCC1806, 168 h).
Taken in the same sequence, the figures for `O=S(=O)(NC1(CF)COC1)c1cc(N2CCC3(CC2)COC3)c2cnc(-c3nnc(C(F)(F)F)s3)n2c1` [Example 176, N-(3-(fluoromethyl)oxetan-3-yl)-8-(2-oxa-7-azaspiro[3.5]nonan-7-yl)-3-(5-(trifluoromethyl)-1,3,4-thiadiazol-2-yl)imidazo[1,5-a]pyridine-6-sulfonamide] were 4.37 nM and 1340 nM.
For the compound `CC(C)N1CC(C(=O)N2CCN(c3cc(S(=O)(=O)NC4(C#N)CC4)cn4c(-c5nnc(C(F)F)s5)ncc34)C[C@H]2C)C1` [Example 295, (R)-N-(1-cyanocyclopropyl)-3-(5-(difluoromethyl)-1,3,4-thiadiazol-2-yl)-8-(4-(1-isopropylazetidine-3-carbonyl)-3-methylpiperazin-1-yl)imidazo[1,5-a]pyridine-6-sulfonamide], the 50% inhibitory concentration (IC50) on PARG (PARG, TFMU-ADPr substrate) is 39.8 nM; with HCC1806 (Homo sapiens, HCC1806, 168 h) it was 2820 nM.
In the same order, the values of `COC1(C(=O)N2CCN(c3cc(S(=O)(=O)NC4(C#N)CC4)cn4c(-c5nnc(C(F)F)s5)ncc34)CC2)CC1` [Example 192, N-(1-cyanocyclopropyl)-3-(5-(difluoromethyl)-1,3,4-thiadiazol-2-yl)-8-(4-(1-methoxycyclopropane-1-carbonyl)piperazin-1-yl)imidazo[1,5-a]pyridine-6-sulfonamide] are 0.83 nM and 30 nM.
In the same order, the values of `CC(C)C(=O)N1CCN(c2cc(S(=O)(=O)NC3CC3)cn3c(-c4nnc(C(F)(F)F)s4)nnc23)CC1` [Example 387, N-cyclopropyl-8-(4-isobutyrylpiperazin-1-yl)-3-(5-(trifluoromethyl)-1,3,4-thiadiazol-2-yl)-[1,2,4]triazolo[4,3-a]pyridine-6-sulfonamide] are 38 nM and 800 nM.
In the same order, the values of `CC1(NS(=O)(=O)c2cc(N3CCN(C(=O)c4ccno4)CC3)c3cnc(-c4nnc(C(F)(F)F)s4)n3c2)CC1` [Example 329, 8-(4-(isoxazole-5-carbonyl)piperazin-1-yl)-N-(1-methylcyclopropyl)-3-(5-(trifluoromethyl)-1,3,4-thiadiazol-2-yl)imidazo[1,5-a]pyridine-6-sulfonamide] are 7.64 nM and 187 nM.
On to `N#CC1(NS(=O)(=O)c2cc(N3CCN(C(=O)N4CCCC4)CC3)c3cnc(-c4nnc(C(F)(F)F)s4)n3c2)CC1` [Example 229, N-(1-cyanocyclopropyl)-8-(4-(pyrrolidine-1-carbonyl)piperazin-1-yl)-3-(5-(trifluoromethyl)-1,3,4-thiadiazol-2-yl)imidazo[1,5-a]pyridine-6-sulfonamide], for which the IC50 came out at 3.31 nM against PARG (PARG, TFMU-ADPr substrate) and 800 nM in the experiment with HCC1806 (Homo sapiens, HCC1806, 168 h).
In the same order, the values of `N#CC1(NS(=O)(=O)c2cc(N3CCN(C(=O)C4COC4)CC3)c3cnc(-c4nnc(C(F)(F)F)s4)n3c2)CC1` [Example 226, N-(1-cyanocyclopropyl)-8-(4-(oxetane-3-carbonyl)piperazin-1-yl)-3-(5-(trifluoromethyl)-1,3,4-thiadiazol-2-yl)imidazo[1,5-a]pyridine-6-sulfonamide] are 26.3 nM and 4850 nM.
For the compound `CC1(NS(=O)(=O)c2cc(N3CCN(C(=O)C4(C)CNC4)CC3)c3cnc(-c4nnc(C(F)(F)F)s4)n3c2)CC1` [Example 313, 8-(4-(3-methylazetidine-3-carbonyl)piperazin-1-yl)-N-(1-methylcyclopropyl)-3-(5-(trifluoromethyl)-1,3,4-thiadiazol-2-yl)imidazo[1,5-a]pyridine-6-sulfonamide], the half-maximal inhibitory concentration (IC50) on PARG (PARG, TFMU-ADPr substrate) was 1.64 nM; in the experiment with HCC1806 (Homo sapiens, HCC1806, 168 h) it was 2050 nM.
In the same order, the values of `N#CC1(NS(=O)(=O)c2cc(N3CCN(C(=O)[C@H]4CCCO4)CC3)c3cnc(-c4nnc(C(F)(F)F)s4)n3c2)CC1` [Example 303, (R)-N-(1-cyanocyclopropyl)-8-(4-(tetrahydrofuran-2-carbonyl)piperazin-1-yl)-3-(5-(trifluoromethyl)-1,3,4-thiadiazol-2-yl)imidazo[1,5-a]pyridine-6-sulfonamide] are 20.9 nM and 435 nM.
Taken in the same sequence, the figures for `CC(C)C(=O)N1CCN(c2cc(S(=O)(=O)NC3(C#N)CC3)cn3c(-c4nnc(C(F)F)s4)ncc23)C[C@H]1CO` [Example 222, (S)-N-(1-cyanocyclopropyl)-3-(5-(difluoromethyl)-1,3,4-thiadiazol-2-yl)-8-(3-(hydroxymethyl)-4-isobutyrylpiperazin-1-yl)imidazo[1,5-a]pyridine-6-sulfonamide] were 2.09 nM and 1670 nM.
Take `N#CC1(NS(=O)(=O)c2cc(N3CCC4(CC3)COC4)c3cnc(-c4nnc(C(F)(F)F)s4)n3c2)CC1` [Example 209, N-(1-cyanocyclopropyl)-8-(2-oxa-7-azaspiro[3.5]nonan-7-yl)-3-(5-(trifluoromethyl)-1,3,4-thiadiazol-2-yl)imidazo[1,5-a]pyridine-6-sulfonamide]: the IC50 against PARG (PARG, TFMU-ADPr substrate) was found to be 60.3 nM; with HCC1806 (Homo sapiens, HCC1806, 168 h), 765 nM.
In the same order, the values of `COCC1CN(c2cc(S(=O)(=O)NC3(CF)COC3)cn3c(-c4nnc(C(F)F)s4)ncc23)CCN1` (stereo not drawn) [Example 356, 3-(5-(difluoromethyl)-1,3,4-thiadiazol-2-yl)-N-(3-(fluoromethyl)oxetan-3-yl)-8-(3-(methoxymethyl)piperazin-1-yl)imidazo[1,5-a]pyridine-6-sulfonamide] are 6.31 nM and 305 nM.
On to `CC1(C(=O)N2CC3CCC2CN3c2cc(S(=O)(=O)NC3(C#N)CC3)cn3c(-c4nnc(C(F)F)s4)ncc23)CC1` (stereo not drawn) [Example 92, N-(1-cyanocyclopropyl)-3-(5-(difluoromethyl)-1,3,4-thiadiazol-2-yl)-8-(5-(1-methylcyclopropane-1-carbonyl)-2,5-diazabicyclo[2.2.2]octan-2-yl)imidazo[1,5-a]pyridine-6-sulfonamide], for which the IC50 against PARG (setting [1]) was less than 100 nM; against PARG (PARG, TFMU-ADPr substrate) it was 27.5 nM; with HCC1806 it was 974 nM; in the experiment on HCC1806 (Homo sapiens, HCC1806, 168 h) it was 500 to 5000 nM.
For the compound `C[C@@H]1CN(c2cc(S(=O)(=O)NC3(C)CC3)cn3c(-c4nnc(C(F)(F)F)s4)ncc23)CCN1C(=O)[C@H]1CCN1C` [Example 306, 8-((R)-3-methyl-4-((R)-1-methylazetidine-2-carbonyl)piperazin-1-yl)-N-(1-methylcyclopropyl)-3-(5-(trifluoromethyl)-1,3,4-thiadiazol-2-yl)imidazo[1,5-a]pyridine-6-sulfonamide], the IC50 against PARG (PARG, TFMU-ADPr substrate) turned out to be 6.11 nM; with HCC1806 (Homo sapiens, HCC1806, 168 h) it was 89 nM.
Taken in the same sequence, the figures for `COCC1CN(c2cc(S(=O)(=O)NC3(C)COC3)cn3c(-c4nnc(C(F)(F)F)s4)nc(Cl)c23)CCN1` (stereo not drawn) [Example 135, 1-chloro-8-(3-(methoxymethyl)piperazin-1-yl)-N-(3-methyloxetan-3-yl)-3-(5-(trifluoromethyl)-1,3,4-thiadiazol-2-yl)imidazo[1,5-a]pyridine-6-sulfonamide] were 12.6 nM and 213 nM.
